Active and inactive are the calls of the source. The calls are words filed in the database; no cut-off is given here.
How the values were obtained:
A-375 [1] = assay: Downregulation of Cyclin D1 protein expression in human A-375 cells at 6 to 8 uM measured after 12 to 24 hrs by western blot assay; format: functional, cell-based; conditions: dose 6-8 µM, time 12-24 hrs
B16 [2] = assay: Induction of apoptosis in mouse B16 cells assessed as cytoplasmic shrinkage at 5 to 7 uM incubated for 24 hrs by Hoechst 33258 staining based fluorescence microscopy; format: functional, cell-based; conditions: dose 5-7 µM
B16 [3] = assay: Cytotoxicity against mouse B16 cells assessed as change in cell morphology with loss of intercellular contacts at 5 to 7 uM incubated for 24 hrs by phase contrast microscope analysis; format: functional, cell-based; conditions: dose 5-7 µM
B16 [4] = assay: Inhibition of autophagy in mouse B16 cells harbouring mCherry-EGFP-LC3 assessed as increase in number of autophagosomes at 6 uM for 8 to 24 hrs by laser scanning confocal microscopic analysis; format: functional, cell-based; conditions: time 8-24 hrs
A-375 [5] = assay: Downregulation of CDK4 protein expression in human A-375 cells at 6 to 8 uM measured after 12 to 24 hrs by western blot assay; format: functional, cell-based; conditions: dose 6-8 µM, time 12-24 hrs
A-375 [6] = assay: Induction of cell cycle arrest in human A-375 cells assessed as accumulation at S phase at 6 uM incubated for 24 hrs by PI staining based flow cytometry analysis (reference value: 28.83 %); format: functional
B16 [7] = assay: Induction of apoptosis in mouse B16 cells assessed as late apoptotic cells at 5 uM measured after 24 hrs by Annexin-V-FITC/PI-staining based flow cytometry (reference value: 4.4 %); format: functional
B16 [8] = assay: Induction of apoptosis in mouse B16 cells assessed as early apoptotic cells preincubated for 2 hrs with […] followed by compound addition and measured after 24 hrs by Annexin-V-FITC/PI-staining based flow cytometry (reference value: 0.9 %); format: functional
A-375 [9] = assay: Induction of apoptosis in human A-375 cells assessed as late apoptotic cells at 6 uM after 24 hrs by Annexin-V-FITC/PI-staining based flow cytometry (reference value: 5.7 %); format: functional
A-375 [10] = assay: Upregulation of p53 accumulation in human A-375 cells at 6 to 8 uM measured after 12 to 24 hrs by western blot assay; format: functional, cell-based; conditions: dose 6-8 µM, time 12-24 hrs
A-375 [11] = assay: Upregulation of p21 accumulation in human A-375 cells at 6 to 8 uM measured after 12 to 24 hrs by western blot assay; format: functional, cell-based; conditions: dose 6-8 µM, time 12-24 hrs
B16 [12] = assay: Inhibition of autophagy in mouse B16 cells harbouring mCherry-EGFP-LC3 assessed as increase in proportion of autolysosomes at 6 uM for 8 to 24 hrs by laser scanning confocal microscopic analysis; format: functional, cell-based; conditions: time 8-24 hrs
A-375 [13] = assay: Induction of cell cycle arrest in human A-375 cells assessed as accumulation at G2/M phase at 6 uM incubated for 24 hrs by PI staining based flow cytometry analysis (reference value: 1.48 %); format: functional
A-375 [14] = assay: Inhibition of colony formation in human A-375 cells assessed as reduction in volume of colonies at 6 to 8 uM incubated for 24 hrs followed by replacement with fresh medium and measured after 14 days by crystal violet staining based analysis; format: functional, cell-based; conditions: dose 6-8 µM
A-375 [15] = assay: Induction of apoptosis in human A-375 cells assessed as late apoptotic cells at 8 uM after 24 hrs by Annexin-V-FITC/PI-staining based flow cytometry (reference value: 5.7 %); format: functional
B16 [16] = assay: Induction of cell cycle arrest in mouse B16 cells assessed as accumulation at G2/M phase at 5 uM incubated for 24 hrs by PI staining based flow cytometry analysis (reference value: 4.70 %); format: functional
B16 [17] = assay: Induction of apoptosis in mouse B16 cells assessed as late apoptotic cells preincubated for 2 hrs with […] followed by compound addition and measured after 24 hrs by Annexin-V-FITC/PI-staining based flow cytometry (reference value: 5.7 %); format: functional
A-375 [18] = assay: Induction of cell cycle arrest in human A-375 cells assessed as accumulation at S phase at 7 uM incubated for 24 hrs by PI staining based flow cytometry analysis (reference value: 28.83 %); format: functional
B16 [19] = assay: Induction of cell cycle arrest in mouse B16 cells assessed as accumulation at G2/M phase incubated for 24 hrs by PI staining based flow cytometry analysis (reference value: 0.88 %); format: functional
B16 [20] = assay: Cytotoxicity against mouse B16 cells assessed as reduction in cell viability incubated for 24 hrs by MTT assay; format: functional, cell-based; conditions: B16, 24 h
A-375 [21] = assay: Induction of apoptosis in human A-375 cells assessed as early apoptotic cells preincubated for 2 hrs with 3-MA followed by compound addition and measured after 24 hrs by Annexin-V-FITC/PI-staining based flow cytometry (reference value: 3.1 %); format: functional
B16 [22] = assay: Induction of apoptosis in mouse B16 cells assessed as early apoptotic cells at 5 uM measured after 24 hrs by Annexin-V-FITC/PI-staining based flow cytometry (reference value: 0.5 %); format: functional
A-375 [23] = assay: Induction of apoptosis in human A-375 cells assessed as early apoptotic cells at 7 uM after 24 hrs by Annexin-V-FITC/PI-staining based flow cytometry (reference value: 1.4 %); format: functional
A-375 [24] = assay: Induction of cell cycle arrest in human A-375 cells assessed as accumulation at G2/M phase incubated for 24 hrs in presence of AG490 inhibitor by PI staining based flow cytometry analysis (reference value: 8.87 %); format: functional
A-375 [25] = assay: Induction of cell cycle arrest in human A-375 cells assessed as accumulation at G0/G1 phase at 8 uM incubated for 24 hrs by PI staining based flow cytometry analysis (reference value: 69.68 %); format: functional
B16 [26] = assay: Cytotoxicity against mouse B16 cells assessed as decrease in number of adherent cells at 5 to 7 uM incubated for 24 hrs by phase contrast microscope analysis; format: functional, cell-based; conditions: dose 5-7 µM
B16 [27] = assay: Induction of apoptosis in mouse B16 cells assessed as late apoptotic cells measured after 24 hrs by Annexin-V-FITC/PI-staining based flow cytometry (reference value: 5.7 %); format: functional
A-375 [28] = assay: Induction of cell cycle arrest in human A-375 cells assessed as accumulation at G2/M phase at 8 uM incubated for 24 hrs by PI staining based flow cytometry analysis (reference value: 1.48 %); format: functional
A-375 [29] = assay: Induction of cell cycle arrest in human A-375 cells assessed as accumulation at G0/G1 phase incubated for 24 hrs by PI staining based flow cytometry analysis (reference value: 56.69 %); format: functional
B16 [30] = assay: Induction of apoptosis in mouse B16 cells assessed as late apoptotic cells at 6 uM measured after 24 hrs by Annexin-V-FITC/PI-staining based flow cytometry (reference value: 4.4 %); format: functional
A-375 [31] = assay: Induction of cell cycle arrest in human A-375 cells assessed as accumulation at G2/M phase at 7 uM incubated for 24 hrs by PI staining based flow cytometry analysis (reference value: 1.48 %); format: functional
A-375 [32] = assay: Induction of cell cycle arrest in human A-375 cells assessed as accumulation at G2/M phase incubated for 24 hrs by PI staining based flow cytometry analysis (reference value: 8.87 %); format: functional
B16 [33] = assay: Induction of apoptosis in mouse B16 cells assessed as early apoptotic cells preincubated for 2 hrs with 3-MA followed by compound addition and measured after 24 hrs by Annexin-V-FITC/PI-staining based flow cytometry (reference value: 0.9 %); format: functional
B16 [34] = assay: Induction of apoptosis in mouse B16 cells assessed as early apoptotic cells measured after 24 hrs by Annexin-V-FITC/PI-staining based flow cytometry (reference value: 0.9 %); format: functional

**Q.** `COc1ccc2cc1Oc1ccc(cc1)C[C@H]1c3cc(c(OC)cc3CCN1C)Oc1c(OC)c(OC)c(OC)c3c1[C@H](C2)N(C)CC3` [HERNANDEZINE] was tested. Which Activity (A-375 [1]) did it give?
**A.** Active

**Q.** And the Activity (B16 [2])?
**A.** Active

**Q.** And the Activity (B16 [3])?
**A.** Active

**Q.** And the inhibition (B16 [4])?
**A.** Active

**Q.** And the Activity (A-375 [5])?
**A.** Active

**Q.** And the Activity (A-375 [6])?
**A.** 22.28%

**Q.** And the Activity (B16 [7])?
**A.** 17.8%

**Q.** What about the Activity (B16 [8]) of the same compound?
**A.** 14.4%

**Q.** And the Activity (A-375 [9])?
**A.** 18.9%

**Q.** What about the Activity (A-375 [10]) of the same compound?
**A.** Active

**Q.** What about the Activity (A-375 [11]) of the same compound?
**A.** Active

**Q.** And the inhibition (B16 [12])?
**A.** Active

**Q.** And the Activity (A-375 [13])?
**A.** 1.43%

**Q.** And the inhibition (A-375 [14])?
**A.** Active

**Q.** What about the Activity (A-375 [15]) of the same compound?
**A.** 53.4%

**Q.** And the Activity (B16 [16])?
**A.** 4.58%

**Q.** And the Activity (B16 [17])?
**A.** 16%

**Q.** What about the Activity (A-375 [18]) of the same compound?
**A.** 22.36%

**Q.** And the Activity (B16 [19])?
**A.** 8.78%

**Q.** And the IC50 (B16 [20])?
**A.** 5.9 µM

**Q.** And the Activity (A-375 [21])?
**A.** 10.1%

**Q.** What about the Activity (B16 [22]) of the same compound?
**A.** 4.6%

**Q.** And the Activity (A-375 [23])?
**A.** 9.4%

**Q.** And the Activity (A-375 [24])?
**A.** 4.78%

**Q.** And the Activity (A-375 [25])?
**A.** 79.56%

**Q.** What about the Activity (B16 [26]) of the same compound?
**A.** Active

**Q.** What about the Activity (B16 [27]) of the same compound?
**A.** 20.6%

**Q.** And the Activity (A-375 [28])?
**A.** 1.24%

**Q.** And the Activity (A-375 [29])?
**A.** 63.87%

**Q.** And the Activity (B16 [30])?
**A.** 19.2%

**Q.** And the Activity (A-375 [31])?
**A.** 6.77%

**Q.** What about the Activity (A-375 [32]) of the same compound?
**A.** 9.5%

**Q.** And the Activity (B16 [33])?
**A.** 14.1%

**Q.** And the Activity (B16 [34])?
**A.** 25.6%

— ChEMBL document CHEMBL5120867, “Hernandezine Regulates Proliferation and Autophagy-Induced Apoptosis in Melanoma Cells” (J Nat Prod, 2022)
